Laboratory results taken from patent publication US4124578A, “Antiovulatory polypeptides” (American Home Products Corporation, priority 1978, dated 1978).
Non-standard residues stand in square brackets, D forms with d. Residues, ends and D or L forms follow the SMILES beside them. pGlu = O=C1CC[C@@H](C(=O)O)N1

Experiments:
[1] = CNS depression noted during the anti-ovulatory test; assay type: in vivo, rat; conditions: at the anti-ovulatory dose (6 mg., subcutaneous in oil), female rats
Procedure: (§1) The rats are sacrificed the next morning (estrus), and the number of animals ovulating and the number of ova identified under a disecting microscope are recorded. The absence of, or a significant decrease in, the number of ova is the criterion for an anti-ovulary effect.

[2] = tested on: Follicle stimulating hormone (FSH) release; conditions: in vivo, rat; cited from earlier work
[3] = tested on: luteinizing hormone (LH) release; conditions: in vivo, rat; cited from earlier work
spontaneous ovulation = experiment: Inhibition of spontaneous ovulation in female rats; assay type: in vivo, rat; conditions: subcutaneous injections in oil on afternoon of proestrus, adult female rats; for Number of Ovulating Rats: ovulating/total
Procedure: as §1

Row | Molecule | release of luteinizing hormone (LH) [3] | % Inhibition of Ovulation (spontaneous ovulation; Dose 6 mg.) | Number of Ovulating Rats (spontaneous ovulation; Dose 6 mg.) | also measured
1 | CCNC(=O)[C@@H]1CCCN1C(=O)[C@H](CCCNC(=N)N)NC(=O)[C@@H](CC(C)C)NC(=O)C(C)(C)NC(=O)CNC(=O)[C@@H](Cc1c[nH]c2ccccc12)NC(=O)[C@H](CCCNC(=N)N)NC(=O)[C@H](Cc1ccc(O)cc1)NC(=O)[C@@H]1CCC(=O)N1 [Example 3, L-(5-Oxoprolyl)-L-tyrosyl-L-arginyl-D-tryptophylglycyl-(2-methylalanyl)-D-leucyl-L-arginyl-N-ethyl-L-prolinamide] (HELM PEPTIDE1{[Glp].Y.R.[dW].G.[Aib].[dL].R.P.[CCN[*:1]]}$$$$V2.0) | – | – | – | CNS depression [1]: CNS depression is noted at the anti-ovulatory dose
2 | [pGlu]YRW-NH2 | release luteinizing hormone (LH) | – | – | Follicle stimulating hormone (FSH) release [2]: unaffected
3 | CCNC(=O)[C@@H]1CCCN1C(=O)[C@H](CCCNC(=N)N)NC(=O)[C@H](CC(C)C)NC(=O)[C@@H](C)NC(=O)CNC(=O)[C@H](Cc1c[nH]c2ccccc12)NC(=O)[C@H](CCCNC(=N)N)NC(=O)[C@H](Cc1ccc(O)cc1)NC(=O)[C@@H]1CCC(=O)N1 [Example 5, L-(5-Oxoprolyl)-L-tyrosyl-L-arginyl-L-tryptophylglycyl-D-alanyl-L-leucyl-L-arginyl-N-ethyl-L-prolinamide] (HELM PEPTIDE1{[Glp].Y.R.W.G.[dA].L.R.P.[CCN[*:1]]}$$$$V2.0) | – | 60% | 2/5 | –
4 | CC(C)C[C@H](NC(=O)[C@@H](C)NC(=O)CNC(=O)[C@H](Cc1c[nH]c2ccccc12)NC(=O)[C@H](CCCNC(=N)N)NC(=O)[C@H](Cc1ccc(O)cc1)NC(=O)[C@@H]1CCC(=O)N1)C(=O)N[C@@H](CCCNC(=N)N)C(=O)N1CCC[C@H]1C(N)=O [Example 7, L-(5-Oxoprolyl)-L-tyrosyl-L-arginyl-L-tryptophylglycyl-D-alanyl-L-leucyl-L-arginyl-L-prolyl amide] (HELM PEPTIDE1{[Glp].Y.R.W.G.[dA].L.R.P.[am]}$$$$V2.0) | – | – | – | % Inhibition of Ovulation (spontaneous ovulation; Dose 0.5 mg.): 50%; Number of Ovulating Rats (spontaneous ovulation; Dose 0.5 mg.): 3/6
5 | [pGlu]YRWGHL-NH2 | release LH | – | – | –
6 | CCNC(=O)[C@@H]1CCCN1C(=O)[C@H](Cc1c[nH]c2ccccc12)NC(=O)[C@H](CCCNC(=N)N)NC(=O)[C@H](Cc1ccc(O)cc1)NC(=O)[C@@H]1CCC(=O)N1 [Example 9, L-(5-Oxoprolyl)-L-tyrosyl-L-arginyl-L-tryptophyl-N-ethyl-2-prolin amide] (HELM PEPTIDE1{[Glp].Y.R.W.P.[CCN[*:1]]}$$$$V2.0) | – | 50% | 2/4 | –
